Columns and labels:
Format in all cases: cell-based, human
LC3-I, -II, and LAMP-2 = assay: Lysosome pathway markers in HT-29 cells, Western blot; conditions: ALD 1 μM, MG-132 20 μM, CQ 50 μM, 9 h
Method: FIG. 23(A) is a blot and showing ubiquitination, but not the lysosome pathway, is involved in the regulation of NKCC1 by ALD. To exclude the possibility that depletion of free ubiquitin by the prolonged MG-132 treatment triggered nonspecific inhibition of lysosome degradation of NKCC1 and investigate whether ALD is involved in a lysosome pathway, a parallel experiment with chloroquine (CQ) was performed. Here, the positive marks (+) indicate application of ALD (1 μM), MG132 (20 μM), CQ (50 μM), ALD+CQ, and MG132+CQ for 9 h. An autophagosome marker, autophagy-related gene 8 named as light chain 3 (LC3), and the lysosome-associated membrane protein 2 (LAMP-2) were used was indicators of lysosome pathway activation (phagocytic activity) under treatment with CQ.
(§1) Western blot. Cell lysates were prepared in RIPA buffer (Pierce 89901; Thermo Scientific, Waltham, Mass.) with protease inhibitor cocktail (78430; Thermo Scientific). Cell samples were homogenized in buffer, followed by centrifugation at 2,000 rpm for 10 min at 4° C. Supernatants were subjected to Western blot analysis by loading 200 μg of protein per lane, after the protein concentrations were determined by Bradford protein assay. Proteins were fractionated by SDS-PAGE gel electrophoresis and transferred to a PVDF blotting membrane (Whatman, Piscataway, N.J.). The blot was incubated with primary antibodies against β-actin and Na—K-2C1 cotransport protein (Cell Signaling, Danvers Mass.); primary antibodies for p-SGK1, SGK1, pNedd4-2, and Nedd4-2 were utilized (concentration 1:1,000). The secondary antibody was horseradish peroxidaseconjugated goat anti-rabbit IgG (1:2,000; Cell Signaling).
Ubiquitination, but not the lysosome pathway, is involved in NKCC1 induction by ALD. A parallel experiment was performed with chloroquine (CQ), a lysosome inhibitor, to exclude the possibility that prolonged MG-132 treatment depleted free ubiquitin by nonspecific inhibition of lysosome degradation of NKCC1 and to confirm whether or not ALD is involved in a lysosome pathway. […]

SGK1 and Nedd4-2 = SGK1 and Nedd4-2 phosphorylation in HT-29 cells, Western blot; conditions: ALD 1 μM, GSK 650394 50 μM, 9 h
Method: FIG. 25 is a blot showing ALD modulation of NKCC1 via the ALD-SGK1-Nedd4-2 pathway. HT-29 cells were treated with ALD (1 μM) or ALD (1 μM)+GSK650394 (50 μM) for 9 h. Cell lysates were analyzed by Western blot as indicated. Blots are representative of 3 independent experiments. Left: controls. Middle: ALD increases the phosphorylations of SGK1 and Nedd4-2, concomitantly there is an increased induction of NKCC1 protein expression (1st row).
as §1

NKCC1 = assay: Tl-uptake in single HT-29 cells (FluxOR) for NKCC1 activity; conditions: 24 single HT-29 cells per condition
Source text: Tl-uptake in single cells for the detection of NKCC1 activity. To measure NKCC1 activity, we used a fluorescence assay to assess cotransporter activity in single isolated HT-29 cells (Delpire & Austin, Kinase regulation of Na^+—K^+-2Cl^− cotransport in primary afferent neurons. J Physiol 588: 3365-3373, 2010, Geng, et al., The Ste20 kinases SPAK and OSR1 regulate NKCC1 function in sensory neurons. J Biol Chem 284: 14020-14028, 2009, Weaver, et al., A thallium-sensitive, fluorescence-based assay for detecting and characterizing potassium channel modulators in mammalian cells. J Biomol Screen 9: 671-677, 2004). HT-29 cells were incubated at 37° C./5% CO2 for 24 h before use. […] For the detection of fluorescence, the preincubation solution was removed, and the cells were treated with a 340.5 mosM hypertonic stimulus solution containing the following (in mM): (2.8 TISO4, 140 NaCl, 2 KCl, 2 CaCl2, 0.8 MgSO4, 5 glucose, 20 HEPES, 27 sucrose, 1 ouabain, and 2.7 probenecid) in the presence or absence of 20 μM bumetanide. […] FluxOR fluorescence (excitation/emission: 488/525 nm) was recorded after 90 s upon addition of 2.8 mM […] to the external medium. […]
Influence of ALD on NKCC1 transporter activity. […] To test this hypothesis, a more efficient and sensitive method, fluorescence Ion flux assays was adopted to measure NKCC1 transporter activity. […]

C[C@]12CCC(=O)C=C1CC[C@@H]1[C@@H]2[C@@H](O)C[C@]2(C=O)[C@@H](C(=O)CO)CC[C@@H]12 [ALD, aldosterone]
lysosome pathway markers LC3II and LAMP-2 expression levels (LC3-I, -II, and LAMP-2): without increasing lysosome pathway markers | phosphorylation of SGK1 and Nedd4-2 (SGK1 and Nedd4-2): increases the phosphorylation of SGK1 and Nedd4-2 | bumetanide-sensitive Tl+ uptake fluorescence (NKCC1): marked increase in fluorescence

Reference: US10342806B2, “Hormone treatment for age-related hearing loss-presbycusis” (priority 2014, dated 2019)
